Data set [1] concerns A549 human lung adenocarcinoma cell line. In words: MTT cytotoxicity assay, A549. The conditions noted are these: A549, 48 h, read-out: IC50 A549 Cell Line.
Procedure: (§2) At the end of this period, supernatants were removed, and 100 μL DMSO was added to each well to solubilize the formazan crystals. The absorbance of the solution was determined on an Infinite M1000 plate reader (Tecan, Mannedorf, Switzerland) at a wavelength of 550 nm with background subtraction at 630 nm.
Data set [2] has as its system A375 human melanoma cell line. In words: MTT cytotoxicity assay, A375. The conditions noted are these: A-375, 48 h, read-out: IC50 A375 Cell Line. (In general: Tetrazolium assays rely on reduction of a dye to a coloured formazan, in cell work by metabolically active cells.)
Procedure: as §2
The test system of data set [3] is HCT116 human colorectal carcinoma cell line. In words: MTT cytotoxicity assay, HCT116. The conditions noted are these: HCT-116, 48 h, read-out: IC50 HCT-116 Cell Line.
Procedure: as §2
Data set [4] relates to peripheral blood mononuclear cells (PBMCs). In words: MTT cytotoxicity assay, PBMCs (tumor selectivity). Particulars: Homo sapiens, PBMC, 48 h, read-out: IC50 PBMCs.
Procedure: as §2
For data set [5], the system named is Jurkat human leukemic T-cells. Kind of data set: MTT cytotoxicity assay, Jurkat cells (tumor selectivity). Particulars: 48 h, read-out: IC50 Jurkat Cells.
Procedure: as §2
The next data set has as its system HCT116 cells. Kind of data set: Detection of cell death, Hoechst 33342/annexin V/ethidium homodimer III staining. The data set is classed as cell-based, human. Particulars: 10 μM, 12 h. The method, then:
The cells were then briefly washed twice with 1× binding buffer, a staining solution containing 50 μL of 1× binding buffer, 5 μL of FITC-Annexin V solution, 5 μL of ethidium homodimer III solution, and 5 μL of Hoechst 33342 solution and incubated for 15 min at room temperature in the dark. Then, cells were washed with 1× binding buffer and analyzed by a Biorevo Fluorescence BZ-9000 all-in-one fluorescence microscope (Keyence, Osaka, Japan). Numbers of healthy cells (Hoechst 33342), apoptotic cells (Annexin V), late apoptotic or necrotic cells (Annexin V and Ethidium homodimer III), and necrotic cells (Ethidium homodimer III) were counted, as previously described.
(B) A total of approximately 100 stained cells were selected randomly in each experiment of (A) and were classified into 4 types: “alive” (blue), “apoptosis” (green), “necrosis or late apoptosis” (both green and red), and “necrosis” (red). […] Data from three independent experiments are shown as means ± standard deviations and p values were determined using Student’s test.

The next data set concerns the target T1, EGFR (Homo sapiens, UniProt P00533).
T1 construct: purchased Promega Corporation
In words: Kinase profiling assay (ADP-Glo), EGFR. Format: biochemical. Particulars: 1 h, room temperature. Here is the method:
(§1) The kinase profiling assay protocol was applied according to the manufacturer’s instructions (Promega Corporation, Madison, WI, USA) with modification. […] Then, the reaction of the kinase was performed using 2 µL of compound solution at varying concentrations (0.1–100 µM), 4 µL of kinase working stock, and 4 µL of ATP/substrate working stock in the 384-well plate. After 1 h of incubation at room temperature, the activity of kinase was detected using ADP-Glo kinase assay (Promega Corporation, Madison, WI, USA), and kinase inhibitory activity of compounds in dose–response mode was measured by an Infinite M1000 luminescence plate reader (Tecan, Groding, Austria).
On the technique in general: ADP-Glo turns the ADP formed in a reaction into a luminescent signal.

The target of the next data set is T2, HER2 (Homo sapiens, UniProt P04626).
T2 construct: purchased Promega Corporation
T2 sequence (P04626 23-1255): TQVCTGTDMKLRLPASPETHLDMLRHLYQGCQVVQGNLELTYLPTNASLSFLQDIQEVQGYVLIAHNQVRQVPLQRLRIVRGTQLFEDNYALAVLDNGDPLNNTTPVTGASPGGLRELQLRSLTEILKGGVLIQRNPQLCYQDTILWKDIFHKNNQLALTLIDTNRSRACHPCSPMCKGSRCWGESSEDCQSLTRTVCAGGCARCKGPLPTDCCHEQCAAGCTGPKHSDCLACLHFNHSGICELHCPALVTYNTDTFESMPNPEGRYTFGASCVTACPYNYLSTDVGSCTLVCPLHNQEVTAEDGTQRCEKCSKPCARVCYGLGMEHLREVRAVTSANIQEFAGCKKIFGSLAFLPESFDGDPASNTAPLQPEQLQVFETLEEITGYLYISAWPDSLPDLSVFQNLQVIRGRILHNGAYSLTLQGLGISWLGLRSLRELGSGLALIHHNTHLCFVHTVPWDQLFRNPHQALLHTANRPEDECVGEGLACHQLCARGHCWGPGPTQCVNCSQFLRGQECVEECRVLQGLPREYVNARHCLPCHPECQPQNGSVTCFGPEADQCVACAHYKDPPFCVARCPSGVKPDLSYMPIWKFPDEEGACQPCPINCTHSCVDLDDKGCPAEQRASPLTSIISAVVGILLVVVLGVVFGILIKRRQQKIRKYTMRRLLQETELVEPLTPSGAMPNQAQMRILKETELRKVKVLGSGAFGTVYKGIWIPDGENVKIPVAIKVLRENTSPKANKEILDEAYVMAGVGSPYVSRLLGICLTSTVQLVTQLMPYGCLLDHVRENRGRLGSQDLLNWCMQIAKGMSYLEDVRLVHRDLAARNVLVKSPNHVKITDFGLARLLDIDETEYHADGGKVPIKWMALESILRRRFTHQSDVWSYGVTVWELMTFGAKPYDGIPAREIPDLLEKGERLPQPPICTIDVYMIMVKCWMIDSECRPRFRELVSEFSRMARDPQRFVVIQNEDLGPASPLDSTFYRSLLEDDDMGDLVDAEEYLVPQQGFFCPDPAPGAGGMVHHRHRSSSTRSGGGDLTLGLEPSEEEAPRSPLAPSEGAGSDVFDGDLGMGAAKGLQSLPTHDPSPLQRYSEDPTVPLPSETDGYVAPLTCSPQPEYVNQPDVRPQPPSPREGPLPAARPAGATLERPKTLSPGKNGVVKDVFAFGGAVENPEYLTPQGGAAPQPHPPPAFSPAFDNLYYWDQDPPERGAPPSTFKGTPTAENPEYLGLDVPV
Kind of data set: Kinase profiling assay (ADP-Glo), HER2. The conditions noted are these: 1 h, room temperature. The data set is classed as biochemical. The method, then: as §1

For the next data set, the target named is T3, HER4 (Homo sapiens, UniProt Q15303).
T3 construct: purchased Promega Corporation
In words: Kinase profiling assay (ADP-Glo), HER4. Format: biochemical. Particulars: 1 h, room temperature. Here is the method:
as §1

In a further data set the target is T4, IGF1R (Homo sapiens, UniProt P08069).
T4 construct: purchased Promega Corporation
Kind of data set: Kinase profiling assay (ADP-Glo), IGF1R. Format: biochemical. Particulars: 1 h, room temperature. Here is the method: as §1

Another data set addresses T5, InsR (Homo sapiens, UniProt P06213).
T5 construct: purchased Promega Corporation
In words: Kinase profiling assay (ADP-Glo), InsR. Format: biochemical. The conditions noted are these: 1 h, room temperature. Here is the method: as §1

The target in the next data set is T6, KDR (Homo sapiens, UniProt P35968).
T6 construct: purchased Promega Corporation
T6 sequence (P35968 20-1356): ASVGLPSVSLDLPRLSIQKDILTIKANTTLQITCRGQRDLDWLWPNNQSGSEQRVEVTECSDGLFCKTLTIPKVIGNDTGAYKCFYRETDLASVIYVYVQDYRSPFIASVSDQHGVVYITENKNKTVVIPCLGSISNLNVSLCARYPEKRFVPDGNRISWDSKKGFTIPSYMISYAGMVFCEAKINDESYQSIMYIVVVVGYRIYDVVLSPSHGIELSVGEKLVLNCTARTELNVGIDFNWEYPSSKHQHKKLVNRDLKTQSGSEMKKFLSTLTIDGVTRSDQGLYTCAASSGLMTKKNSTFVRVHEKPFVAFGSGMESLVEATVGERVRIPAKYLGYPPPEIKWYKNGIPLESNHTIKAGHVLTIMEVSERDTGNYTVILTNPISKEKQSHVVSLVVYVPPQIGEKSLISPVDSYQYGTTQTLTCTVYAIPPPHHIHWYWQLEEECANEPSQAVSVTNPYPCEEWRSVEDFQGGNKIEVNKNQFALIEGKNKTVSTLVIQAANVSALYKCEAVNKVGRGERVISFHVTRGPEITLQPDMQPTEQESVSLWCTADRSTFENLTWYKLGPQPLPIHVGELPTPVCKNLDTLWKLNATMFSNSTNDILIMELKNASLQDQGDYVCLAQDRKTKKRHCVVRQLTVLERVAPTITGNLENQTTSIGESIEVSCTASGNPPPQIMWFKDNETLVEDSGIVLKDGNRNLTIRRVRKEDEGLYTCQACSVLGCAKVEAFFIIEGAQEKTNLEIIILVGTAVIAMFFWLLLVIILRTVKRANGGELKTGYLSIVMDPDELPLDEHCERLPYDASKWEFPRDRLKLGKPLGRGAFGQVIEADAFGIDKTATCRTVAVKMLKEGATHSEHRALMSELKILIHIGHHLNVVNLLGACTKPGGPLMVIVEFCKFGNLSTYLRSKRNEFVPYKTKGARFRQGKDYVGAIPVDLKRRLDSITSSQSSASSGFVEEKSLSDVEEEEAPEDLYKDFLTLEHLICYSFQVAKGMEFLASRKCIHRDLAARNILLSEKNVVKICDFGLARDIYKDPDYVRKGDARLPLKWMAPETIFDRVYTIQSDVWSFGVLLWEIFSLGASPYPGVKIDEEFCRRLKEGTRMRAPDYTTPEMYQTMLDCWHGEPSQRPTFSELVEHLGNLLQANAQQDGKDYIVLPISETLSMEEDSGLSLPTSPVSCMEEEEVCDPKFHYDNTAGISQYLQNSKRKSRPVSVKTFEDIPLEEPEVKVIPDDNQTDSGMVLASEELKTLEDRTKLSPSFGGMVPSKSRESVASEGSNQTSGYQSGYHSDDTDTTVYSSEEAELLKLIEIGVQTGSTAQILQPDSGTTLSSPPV
In words: Kinase profiling assay (ADP-Glo), KDR. Format: biochemical. The conditions noted are these: 1 h, room temperature. The method, then:
as §1

The next data set deals with T7, PDGFRα (Homo sapiens, UniProt P16234).
T7 construct: purchased Promega Corporation
T7 sequence (P16234 24-1089): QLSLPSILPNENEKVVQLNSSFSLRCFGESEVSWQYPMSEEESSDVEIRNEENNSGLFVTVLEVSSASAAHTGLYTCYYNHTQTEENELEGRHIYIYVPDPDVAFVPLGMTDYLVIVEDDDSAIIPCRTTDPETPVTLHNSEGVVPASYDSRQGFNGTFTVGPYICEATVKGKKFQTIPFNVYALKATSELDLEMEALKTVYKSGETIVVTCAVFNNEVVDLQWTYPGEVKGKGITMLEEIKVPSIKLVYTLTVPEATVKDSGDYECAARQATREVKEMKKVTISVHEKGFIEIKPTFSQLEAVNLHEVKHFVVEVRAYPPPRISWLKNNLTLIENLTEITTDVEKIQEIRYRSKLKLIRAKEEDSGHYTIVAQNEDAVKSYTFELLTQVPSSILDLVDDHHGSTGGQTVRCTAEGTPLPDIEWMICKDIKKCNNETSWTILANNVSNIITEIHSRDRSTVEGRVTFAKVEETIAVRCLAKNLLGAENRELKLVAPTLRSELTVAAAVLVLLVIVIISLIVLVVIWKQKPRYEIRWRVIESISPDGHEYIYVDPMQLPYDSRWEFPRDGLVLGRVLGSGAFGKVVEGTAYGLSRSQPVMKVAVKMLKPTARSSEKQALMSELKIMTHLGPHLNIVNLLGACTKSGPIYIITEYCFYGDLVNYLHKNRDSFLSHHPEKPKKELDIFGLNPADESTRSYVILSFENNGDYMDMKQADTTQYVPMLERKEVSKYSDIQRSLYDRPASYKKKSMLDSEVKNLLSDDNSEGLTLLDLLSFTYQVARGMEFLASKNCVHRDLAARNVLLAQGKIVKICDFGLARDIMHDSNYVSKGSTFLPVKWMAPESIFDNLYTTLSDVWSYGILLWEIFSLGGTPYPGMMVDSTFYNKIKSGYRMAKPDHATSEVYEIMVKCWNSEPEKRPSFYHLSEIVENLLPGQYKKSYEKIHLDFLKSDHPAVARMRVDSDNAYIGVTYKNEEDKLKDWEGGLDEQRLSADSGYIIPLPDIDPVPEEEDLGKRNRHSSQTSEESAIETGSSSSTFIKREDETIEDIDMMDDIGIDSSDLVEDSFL
In words: Kinase profiling assay (ADP-Glo), PDGFRα. Particulars: 1 h, room temperature. Format: biochemical. The method, then:
as §1

A further data set has as its target T8, PDGFRβ (Homo sapiens, UniProt P09619).
T8 construct: purchased Promega Corporation
Kind of data set: Kinase profiling assay (ADP-Glo), PDGFRβ. Format: biochemical. Particulars: 1 h, room temperature. Here is the method:
as §1

In the next data set the target is T9, COX-1 (Ovis aries, UniProt P05979).
T9 sequence (P05979 25-600): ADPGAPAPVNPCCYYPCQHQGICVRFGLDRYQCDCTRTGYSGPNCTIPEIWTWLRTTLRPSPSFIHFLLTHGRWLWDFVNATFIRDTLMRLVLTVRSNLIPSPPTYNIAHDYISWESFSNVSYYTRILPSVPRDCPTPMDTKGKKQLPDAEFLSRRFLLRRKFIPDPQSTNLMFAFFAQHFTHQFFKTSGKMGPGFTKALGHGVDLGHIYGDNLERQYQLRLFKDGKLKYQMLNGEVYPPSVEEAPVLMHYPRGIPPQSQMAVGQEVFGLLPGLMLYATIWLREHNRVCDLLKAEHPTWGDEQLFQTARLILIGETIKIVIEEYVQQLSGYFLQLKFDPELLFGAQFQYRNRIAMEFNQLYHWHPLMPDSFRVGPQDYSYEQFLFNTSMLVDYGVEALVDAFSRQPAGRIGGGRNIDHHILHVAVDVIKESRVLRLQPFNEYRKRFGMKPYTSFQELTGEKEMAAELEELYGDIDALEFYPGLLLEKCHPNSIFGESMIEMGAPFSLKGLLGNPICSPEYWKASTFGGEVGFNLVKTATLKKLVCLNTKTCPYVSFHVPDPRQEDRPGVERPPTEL
In words: In vitro COX inhibition assay (COX (ovine/human) inhibitor screening kit), COX-1.

One may read the IC50 as the concentration that inhibits the measured activity by half. In general, melting point refers to the temperature of the solid-liquid transition.

Structures are written as SMILES.

T5 sequence (P06213 28-1382): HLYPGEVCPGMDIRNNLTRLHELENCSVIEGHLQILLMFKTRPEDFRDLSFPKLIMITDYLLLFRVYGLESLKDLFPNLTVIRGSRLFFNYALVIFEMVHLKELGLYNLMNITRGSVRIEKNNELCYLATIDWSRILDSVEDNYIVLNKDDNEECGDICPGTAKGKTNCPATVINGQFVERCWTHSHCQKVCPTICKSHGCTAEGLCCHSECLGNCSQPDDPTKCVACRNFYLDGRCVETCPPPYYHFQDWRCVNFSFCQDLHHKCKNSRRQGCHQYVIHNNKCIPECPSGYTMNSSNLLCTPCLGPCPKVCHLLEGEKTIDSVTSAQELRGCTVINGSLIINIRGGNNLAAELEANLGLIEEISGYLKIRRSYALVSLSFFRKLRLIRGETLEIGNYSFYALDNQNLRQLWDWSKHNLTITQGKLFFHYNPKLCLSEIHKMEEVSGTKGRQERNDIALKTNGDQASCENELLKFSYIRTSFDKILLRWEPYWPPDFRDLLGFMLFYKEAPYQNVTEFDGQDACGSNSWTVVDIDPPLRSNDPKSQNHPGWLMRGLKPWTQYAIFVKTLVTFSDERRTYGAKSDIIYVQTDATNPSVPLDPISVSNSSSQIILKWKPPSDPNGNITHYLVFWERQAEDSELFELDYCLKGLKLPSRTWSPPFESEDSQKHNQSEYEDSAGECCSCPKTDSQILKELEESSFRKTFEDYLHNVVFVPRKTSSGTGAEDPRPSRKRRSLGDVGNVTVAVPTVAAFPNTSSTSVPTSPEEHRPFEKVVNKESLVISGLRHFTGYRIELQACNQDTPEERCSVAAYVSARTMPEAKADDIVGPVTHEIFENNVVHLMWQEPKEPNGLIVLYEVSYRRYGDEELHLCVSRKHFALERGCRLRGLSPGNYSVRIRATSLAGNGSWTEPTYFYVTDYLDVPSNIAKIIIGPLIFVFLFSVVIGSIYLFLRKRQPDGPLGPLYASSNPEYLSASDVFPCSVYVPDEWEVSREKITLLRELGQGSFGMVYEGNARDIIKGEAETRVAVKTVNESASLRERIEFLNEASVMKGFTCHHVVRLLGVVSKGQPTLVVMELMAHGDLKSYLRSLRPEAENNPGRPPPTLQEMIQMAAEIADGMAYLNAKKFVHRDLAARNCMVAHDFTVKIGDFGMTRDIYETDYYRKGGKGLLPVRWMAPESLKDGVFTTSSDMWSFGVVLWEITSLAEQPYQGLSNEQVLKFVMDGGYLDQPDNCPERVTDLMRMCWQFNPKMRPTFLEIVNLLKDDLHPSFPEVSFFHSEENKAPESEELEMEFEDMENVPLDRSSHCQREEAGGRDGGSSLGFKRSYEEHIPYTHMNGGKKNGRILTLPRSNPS
Procedure for COX-1: Briefly, COX reactions were performed. […] The prostaglandins were quantified by ELISA.

For the molecule `O=C(CSc1nnc(Cc2c[nH]c3ccccc23)o1)Nc1nc2ccccc2s1` [Compound 2a, 2-[(5-((1H-Indol-3-yl)methyl)-1,3,4-oxadiazol-2-yl)thio]-N-(benzothiazol-2-yl)acetamide], the IC50 in data set [1] is 40.4 ± 7.74 µM; in data set [2], 65.1 ± 10.1 µM; in [3] it was 26.2 ± 1.75 µM; in data set [4], more than 300 µM; in data set [5] it was 17.7 ± 3.59 µM.

With `O=C(CSc1nnc(Cc2c[nH]c3ccccc23)o1)Nc1nc2ccc(Cl)cc2s1` [Compound 2b, 2-[(5-((1H-Indol-3-yl)methyl)-1,3,4-oxadiazol-2-yl)thio]-N-(6-chlorobenzothiazol-2-yl)acetamide], the IC50 in data set [1] is 60.7 ± 9.48 µM; in [2], 37.6 ± 5.62 µM; in data set [3], more than 100 µM.

Molecule `O=C(CSc1nnc(Cc2c[nH]c3ccccc23)o1)Nc1nc2ccc(Br)cc2s1` [Compound 2c, 2-[(5-((1H-Indol-3-yl)methyl)-1,3,4-oxadiazol-2-yl)thio]-N-(6-bromobenzothiazol-2-yl)acetamide] showed a melting point of 240.6 to 241.5 °C. Further, in data set [1], the IC50 was 24.9 ± 1.96 µM. Besides, the IC50 in [2] was determined as 48.5 ± 5.78 µM. For the same molecule, the IC50 in data set [3] is more than 100 µM.

As for `Cc1ccc2nc(NC(=O)CSc3nnc(Cc4c[nH]c5ccccc45)o3)sc2c1` [Compound 2d, 2-[(5-((1H-Indol-3-yl)methyl)-1,3,4-oxadiazol-2-yl)thio]-N-(6-methylbenzothiazol-2-yl)acetamide], the IC50 in data set [1] is 36.9 ± 5.43 µM; in data set [2] it was 30.2 ± 3.12 µM; in data set [3], 18.2 ± 1.19 µM; in [4] it was more than 300 µM; in data set [5], 21.1 ± 1.85 µM.

On to `CCOc1ccc2nc(NC(=O)CSc3nnc(Cc4c[nH]c5ccccc45)o3)sc2c1` [Compound 2e, 2-[(5-((1H-Indol-3-yl)methyl)-1,3,4-oxadiazol-2-yl)thio]-N-(6-ethoxybenzothiazol-2-yl)acetamide], for which the “apoptosis (apoptotic cells)” value in the data set with HCT116 cells was 28.35%. Besides, in the data set with HCT116 cells, the “late apoptotic or necrotic effects” value came out at 9.81%. Besides, the IC50 at EGFR is 2800 ± 520 nM; at HER2, more than 30 µM; against HER4 it was 8.22 ± 1.64 µM; against IGF1R, more than 30 µM; against InsR, 29.1 ± 4.66 µM; against KDR, more than 30 µM. The IC50 against PDGFRα is more than 30 µM; against PDGFRβ, 6.16 ± 1.58 µM; in data set [1], 9.62 ± 1.14 µM; in data set [3], 6.43 ± 0.72 µM; in data set [4] it was more than 300 µM; in [5], 6.45 ± 1.02 µM. On COX-1, this molecule returned a half-inhibitory concentration (IC50) of 73.5 ± 2.12 µM.

`O=C(CSc1nnc(Cc2c[nH]c3ccccc23)o1)Nc1nc2ccc([N+](=O)[O-])cc2s1` [Compound 2f, 2-[(5-((1H-Indol-3-yl)methyl)-1,3,4-oxadiazol-2-yl)thio]-N-(6-nitrobenzothiazol-2-yl)acetamide]: the IC50 in [1], in [2] and in data set [3] was more than 100 µM throughout.

With `O=C(CSc1nnc(Cc2c[nH]c3ccccc23)o1)Nc1nccs1` [Compound 2g, 2-[(5-((1H-Indol-3-yl)methyl)-1,3,4-oxadiazol-2-yl)thio]-N-(thiazol-2-yl)acetamide], the melting point was 177.4 to 178.2 °C. The IC50 in [1] was more than 100 µM. Besides, the IC50 in data set [2] is more than 100 µM. The IC50 in data set [3] is more than 100 µM.

Take `O=C(CSc1nnc(Cc2c[nH]c3ccccc23)o1)Nc1ncc([N+](=O)[O-])s1` [Compound 2h, 2-[(5-((1H-Indol-3-yl)methyl)-1,3,4-oxadiazol-2-yl)thio]-N-[5-nitrothiazol-2-yl]acetamide]: the melting point is 233.9 to 234.5 °C. For the same molecule, the IC50 in data set [1] is more than 100 µM. In addition, in data set [2], the IC50 is more than 100 µM. For the same molecule, the IC50 in data set [3] is more than 100 µM.

`CCOC(=O)Cc1csc(NC(=O)CSc2nnc(Cc3c[nH]c4ccccc34)o2)n1` [Compound 2i, 2-[(5-((1H-Indol-3-yl)methyl)-1,3,4-oxadiazol-2-yl)thio]-N-[4-(ethoxycarbonylmethyl)thiazol-2-yl]acetamide] came in with a melting point of 158 to 158.6 °C. Besides, the IC50 in [1] was found to be 71.9 ± 10.3 µM. Besides, the IC50 in data set [2] was 95.9 ± 12.4 µM. Also, the IC50 in data set [3] is more than 100 µM.

As to `C#Cc1cccc(Nc2ncnc3cc(OCCOC)c(OCCOC)cc23)c1` [Erlotinib, reference compound], the “apoptosis (apoptotic cells)” value in the data set on HCT116 cells is reported as 7.42%. In addition, the “late apoptotic or necrotic effects” value with HCT116 cells is given as 10.45%. For the same molecule, the IC50 worked out at 19.4 ± 2.38 µM in data set [1], 23.8 ± 4.17 µM in data set [2], 45.7 ± 8.88 µM in data set [4] and 9.47 ± 2.15 µM in [5].

For the origin of these results see publication PMC7664637, “In Vitro and In Silico Evaluation of Anticancer Activity of New Indole-Based 1,3,4-Oxadiazoles as EGFR and COX-2 Inhibitors” (Molecules, 2020).
